According to patent US20250127845A1, “MEDICINAL USES OF OLIGOPEPTIDES IN COMBINATION WITH AN ANTIANDROGEN” (HBC IMMUNOLOGY INC., priority 2022, published 2025):
“And” between values parts separate entries of the source, which are not always exact repeats. Equal entries are not always repeated.

Legend:
Assay type in all cases: cell-based, human
[1] = tested on: transferrin receptor 1 (TFRC) mRNA; experiment: TFRC gene expression by qRT-PCR in LNCaP cells
Method: (§1) Gene Expression. LNCaP, PC-3, VCaP, and VCaP-EnzR cells were seeded in 24-well plates and maintained in RPMI1640 medium supplemented with 2 mmol/L L-glutamine. 100 U/mL penicillin, […] streptomycin, and 10% heat-inactivated fetal bovine serum at 37° C. in a humidified 5% CO2 atmosphere. […] SPH absent wells (DMSO 0.04%) were used as the negative control. All experiments were run in triplicate.
(§2) Samples were studied for expression of the ferritin heavy chain 1 (FTH1) and transferrin receptor 1 ([…]) genes. Total RNA was extracted from cell pellets using the UPzol reagent (Biotechrabbit), followed by DNAse treatment (DNAse TURBO) according to the manufacturers' protocols. Complementary DNA (cDNA) was synthesized with the High Capacity cDNA Reverse Transcription Kit (Applied Biosystems) using random hexamers. Gene expression levels were measured by qRT-PCR.
(§3) 1 μl of cDNA (corresponding to 50 ng of reverse transcribed RNA) was amplified by Qpcr (QuantStudio™ 6 Flex Real-Time PCR System), using TaqMan™ Universal PCR Master Mix (Catalog No. 4304437) and a TaqMan™ assay (Roche Molecular Systems, Inc., Pleasanton, CA). FTH1 and TFRC gene expression was estimated relative to expression of the housekeeping gene, beta-actin (ACTB), following the standard formula: 2-ΔCt. TaqMan probe IDs used include: (i) FTH1, Hs01694011_s1; (ii) TFRC, Hs00951083_m1; and (iii) ACTB, Hs01060665_g1. […]

[2] = tested on: transferrin receptor 1 (TFRC) mRNA; experiment: TFRC gene expression by qRT-PCR in PC3 cells
Method: as §1, §2, §3

PC3 cells = experiment: Clonogenic assay, PC3 cells; conditions: for decrease in survival compared to 10 μM bicalutamide monotreatment: 10 μM oligopeptide with 10 μM bicalutamide
Method: (§4) Test Solutions. SPH test solutions were prepared by adding 10 μg, 40 μg, or 160 μg of SPH powder to 1 ml of DMEM containing 0.3% FBS+2% DMSO and sonicating for 10 min just prior to use. Bicalutamide, referred to herein as BIC, (Sigma-Aldrich, Catalog No. B9061) test solutions were prepared by adding 0.43 or 4.3 μg to 1 ml (1 μM and 10 μM) of DMEM containing 0.3% FBS+2% DMSO and sonicating for 10 min just prior to use.
(§5) Cell Culture. The C4 subline (CRL-3313™, RRID: CVCL 4783), which was derived from the human prostate carcinoma cell line LNCaP, was obtained from ATCC (Manassas, VA). C4, which is referred to herein as LNCaP, is an exemplary androgen receptor-positive (AR+ve) cell line that has an epithelial-like morphology and a low metastatic potential. The PC-3 cell line (CRL-1435, RRID: CVCL_0035) was obtained from ATCC (Manassas, VA). PC-3 is an exemplary androgen receptor-negative (AR−ve) cell line that has an epithelial morphology and a high metastatic potential. The Vertebral-Cancer of the Prostate (VCaP) cell line was obtained from Sigma-Aldrich, USA (Catalog No. 06020201). VCaP is a human cell line with an epithelial morphology that was established from a metastatic prostate cancer lesion (Korenchuk et al., In Vivo, 15(2):163˜168, 2001). VCaP cells are androgen receptor-positive and express high levels of prostate-specific antigen. The VCaP-EnzR cell line was also obtained from Sigma-Aldrich, USA (Catalog No. SCC421). […] VCaP-EnzR cells are enzalutamide-resistant and therefore are a suitable model for studying castration-resistant prostate cancer. All cell lines were cultured in RPMI1640 supplemented with 2 mmol/L L-glutamine. 100 U/mL penicillin, […] streptomycin, and 10% heat-inactivated fetal bovine serum. All cells were certified negative for Mycoplasma.
(§6) Clonogenic Assay. Confluent cells were trypsinized and seeded at densities ranging from 3000 to 5000 cells in 10 cm Petri dishes, depending on the cell line, as recommended in the ATCC or Sigma-Aldrich product sheets. […] Treatments were applied daily for 5 days without media changes. The colonies were allowed to develop over 12 days, stained with crystal violet and automatically counted using a TC20 Automated Cell Counter (Bio Rad, Hercules, CA). Each assay was internally controlled using untreated cells (cell media+0.1% DMSO). Relative plating efficiencies were expressed as percentages relative to the plating efficiency of untreated cells and reported as the relative percent colony survival value. All experiments were performed in triplicate.
(§7) All oligopeptides were tested in combination with BIC or ENZ in clonogenic assays. […] SPH absent wells (DMSO 0.04%) were used as the negative control. All experiments were run in triplicate.

[3] = tested on: ferritin heavy chain 1 (FTH1) mRNA; experiment: FTH1 gene expression by qRT-PCR in PC3 cells
Method: as §1, §2, §3

LNCaP cells = experiment: Clonogenic assay, LNCaP cells; conditions: for relative percent colony survival / minimal inhibitory concentration (MIC) of bicalutamide: LNCaP; for minimal inhibitory concentration (MIC) of bicalutamide: concentration that begins to inhibit colony formation
Method: as §4, §5, §6, §7

[4] = tested on: ferritin heavy chain 1 (FTH1) mRNA; experiment: FTH1 gene expression by qRT-PCR in LNCaP cells
Method: as §1, §2, §3

[5] = tested on: transferrin receptor 1 (TFRC) mRNA; experiment: TFRC gene expression by qRT-PCR in VCaP-EnzR cells; conditions: oligopeptide at 10 μM with […] μM ENZ
Method: as §1, §2, §3

[6] = tested on: ferritin heavy chain 1 (FTH1) mRNA; experiment: FTH1 gene expression by qRT-PCR in VCaP-EnzR cells; conditions: oligopeptide at 10 μM with […] μM ENZ
Method: as §1, §2, §3

[7] = tested on: transferrin receptor 1 (TFRC) mRNA; experiment: TFRC gene expression by qRT-PCR in VCaP cells; conditions: oligopeptide at 10 μM with […] ENZ
Method: as §1, §2, §3

[8] = tested on: ferritin heavy chain 1 (FTH1) mRNA; experiment: FTH1 gene expression by qRT-PCR in VCaP cells; conditions: oligopeptide at 10 μM with […] ENZ
Method: as §1, §2, §3

VCaP cells = experiment: Clonogenic assay, VCaP cells; conditions: 10 μM oligopeptide with […] enzalutamide, p<0.01
Method: as §4
(§8) Cell Culture. The C4 subline (CRL-3313™, RRID: CVCL 4783), which was derived from the human prostate carcinoma cell line LNCaP, was obtained from ATCC (Manassas, VA). C4, which is referred to herein as LNCaP, is an exemplary androgen receptor-positive (AR+ve) cell line that has an epithelial-like morphology and a low metastatic potential. The PC-3 cell line (CRL-1435, RRID: CVCL_0035) was obtained from ATCC (Manassas, VA). PC-3 is an exemplary androgen receptor-negative (AR−ve) cell line that has an epithelial morphology and a high metastatic potential. The Vertebral-Cancer of the Prostate (VCaP) cell line was obtained from Sigma-Aldrich, USA (Catalog No. 06020201). […]
(§9) Clonogenic Assay. […] The colonies were allowed to develop over 12 days, stained with crystal violet and automatically counted using a TC20 Automated Cell Counter (Bio Rad, Hercules, CA). […]

VCaP-EnzR cells = experiment: Clonogenic assay, VCaP-EnzR cells; conditions: 10 μM oligopeptide with […] μM enzalutamide, p<0.001
Method: as §4, §8, §9

[9] = 1 μM BIC alone, relative to ACTB
[10] = oligopeptide at 10 μM with 0.4 μM BIC
[11] = oligopeptide at 10 μM with 0.4 μM BIC, listed as FT-005-B
[12] = oligopeptide at 10 μM with 10 μM BIC
[13] = oligopeptide at 10 μM with 10 μM BIC, listed as FT-005-B
[14] = oligopeptide at 10 μM with 10 μM BIC, listed as FT-007-B
[15] = oligopeptide at 10 μM with 0.4 μM BIC, listed as FT-006-B
[16] = oligopeptide at 10 μM with 0.4 μM BIC, listed as FT-008-B
[17] = oligopeptide at 10 μM with 10 μM BIC, listed as FT-008-B
[18] = oligopeptide at 10 μM with 10 μM BIC, listed as FT-002-B

`CC(O)(CS(=O)(=O)c1ccc(F)cc1)C(=O)Nc1ccc(C#N)c(C(F)(F)F)c1` (centres unmarked) [BIC, bicalutamide, reference compound] was tested, and the “TFRC Fold Change (single replicates)” value [1, 9] was 1.0 (2×) and 1.2, the “TFRC Fold Change, Average” value [1, 9] was 1.1 and the “TFRC Fold Change (single replicates)” value ([2]; 10 μM BIC alone) was 1.0 and 1.1 and 1.2. For the same molecule, the “TFRC Fold Change, Average” value ([2]; 10 μM BIC alone) was 1.1, the IC50 (PC3 cells; Homo sapiens, PC-3, PC3 clonogenic assay, read-out: IC50 of bicalutamide) was 10 µM and the “relative percent colony survival” value (PC3 cells; PC3, 10 μM BIC alone) was 52%. For the same molecule, the “minimal inhibitory concentration (MIC) of bicalutamide” value (“minimal inhibitory concentration” for short) (PC3 cells; PC3, concentration that begins to inhibit colony formation) was 10 µM, the “FTH1 Fold Change (single replicates)” value ([3]; 10 μM BIC alone) was 0.9 and 1.0 and 1.2 and the “FTH1 Fold Change, Average” value ([3]; 10 μM BIC alone) was 1.0. For the same molecule, the IC50 (LNCaP cells; Homo sapiens, LNCaP clonogenic assay, read-out: IC50 of bicalutamide) was 400 nM, the “relative percent colony survival” value (LNCaP cells; 0.5 μM BIC alone) was 85% and the “relative percent colony survival” value (LNCaP cells; 1.0 μM BIC alone) was 25%. For the same molecule, the “minimal inhibitory concentration” value (LNCaP cells) was 1 µM, the “minimal inhibitory concentration” value (LNCaP cells; listed as bicalutamide) was 0.5 µM and the “FTH1 Fold Change (single replicates)” value [4, 9] was 1.0 (2×) and 1.1. The “FTH1 Fold Change, Average” value [4, 9] was 1.0.

In the case of “LDEESGEP [FT-005, synthetic oligopeptide; -B / -E: tested with bicalutamide / enzalutamide]”, the “TFRC Fold Change, Average” value [1, 10] is reported as 0.6, the “TFRC Fold Change (single replicates)” value [1, 11] is reported as 0.7 and 0.6 (2×) and the “TFRC Fold Change, Average” value [5] is reported as 0.5. The “TFRC Fold Change, Average” value [2, 12] was 0.6, the “TFRC Fold Change (single replicates)” value [2, 13] was 0.7 and 0.5 (2×) and the “FTH1 Fold Change, Average” value [6] was 3.2. The “TFRC Fold Change, Average” value [7] was 0.6, the “decrease in survival compared to 10 μM bicalutamide monotreatment” value (PC3 cells; PC3) was “approximately 70%” and the “FTH1 Fold Change, Average” value [3, 12] was 2.1. The “FTH1 Fold Change (single replicates)” value [3, 13] was 2.2 and 2.1 (2×), the “FTH1 Fold Change, Average” value [8] was 2.3 and the “decrease in cell survival compared to […] enzalutamide with 160 SPH” value (VCaP cells) was “approximately 40%”. For the same molecule, the “FTH1 Fold Change, Average” value [4, 10] was 2.2, the “FTH1 Fold Change (single replicates)” value [4, 11] was 2.2 (2×) and 2.3 and the relative survival (VCaP-EnzR cells) was 11%.

For PREESDKP [FT-007], the “TFRC Fold Change, Average” value [2, 12] was 0.7, the “TFRC Fold Change (single replicates)” value [2, 14] was 0.6 and 0.8 (2×) and the “TFRC Fold Change, Average” value [7] was 0.8. The “FTH1 Fold Change, Average” value [3, 12] was 1.9, the “FTH1 Fold Change (single replicates)” value [3, 14] was 1.9 (2×) and 2.0 and the “FTH1 Fold Change, Average” value [8] was 1.9.

With REESDKPMY [FT-006] the “TFRC Fold Change, Average” value [1, 10] was 0.9, the “TFRC Fold Change (single replicates)” value [1, 15] was 0.9 (2×) and 0.8 and the “TFRC Fold Change, Average” value [5] was 0.6. For the same molecule, the “FTH1 Fold Change, Average” value [6] was 2.6, the “FTH1 Fold Change, Average” value [4, 10] was 1.8 and the “FTH1 Fold Change (single replicates)” value [4, 15] was 1.9 (2×) and 1.6.

For REESGEL [FT-008], the “TFRC Fold Change, Average” value [1, 10] was 0.8, the “TFRC Fold Change (single replicates)” value [1, 16] was 0.8 (2×) and 0.9 and the “TFRC Fold Change, Average” value [5] was 0.6. The “TFRC Fold Change, Average” value [2, 12] was 0.9, the “TFRC Fold Change (single replicates)” value [2, 17] was 0.8 and 0.9 (2×) and the “FTH1 Fold Change, Average” value [6] was 2.5. The “TFRC Fold Change (single replicates)” value [7] was 0.7, the “TFRC Fold Change, Average” value [7] was 0.7 and the “FTH1 Fold Change, Average” value [3, 12] was 1.8. For the same molecule, the “FTH1 Fold Change (single replicates)” value [3, 17] was 1.8 (2×) and 1.9, the “FTH1 Fold Change, Average” value [8] was 2.2 and the “FTH1 Fold Change, Average” value [4, 10] was 2.0. For the same molecule, the “FTH1 Fold Change (single replicates)” value [4, 16] was 1.8 and 1.9 and 2.2.

For “REESGEP [FT-002, synthetic oligopeptide; -B / -E: tested with bicalutamide / enzalutamide]”, the “TFRC Fold Change (single replicates)” value [1, 10] was 0.7, the “TFRC Fold Change, Average” value [1, 10] was 0.7 and the “TFRC Fold Change, Average” value [5] was 0.5. For the same molecule, the “TFRC Fold Change, Average” value [2, 12] was 0.7, the “TFRC Fold Change (single replicates)” value [2, 18] was 0.7 and 0.8 and 0.6 and the “FTH1 Fold Change, Average” value [6] was 3.6. For the same molecule, the “TFRC Fold Change, Average” value [7] was 0.6, the “decrease in survival compared to 10 μM bicalutamide monotreatment” value (PC3 cells; PC3) was “approximately 70%” and the “FTH1 Fold Change, Average” value [3, 12] was 2.0. The “FTH1 Fold Change (single replicates)” value [3, 18] was 2.0 (2×) and 2.1, the “FTH1 Fold Change, Average” value [8] was 2.2 and the “decrease in cell survival compared to […] enzalutamide with 160 SPH” value (VCaP cells) was “approximately 40%”. The “FTH1 Fold Change, Average” value [4, 10] was 2.0, the “FTH1 Fold Change (single replicates)” value ([4]; oligopeptide at 10 μM with 0.4 μM BIC, listed as FT-002-B) was 2.1 (2×) and 1.9 and the relative survival (VCaP-EnzR cells) was 11%.
